# Assay results: ChEMBL document CHEMBL5608215, “Development of amphipathic derivatives of thymol and carvacrol as potent broad-spectrum antibacterial agents” (Eur J Med Chem, 2024)
# What was measured:
# Type in all cases: functional
# [1] = system: Enterococcus faecalis; assay: Antibacterial activity against Enterococcus faecalis ATCC29212 by CLSI based serial dilution method
# [2] = system: Pseudomonas aeruginosa; assay: Antibacterial activity against Pseudomonas aeruginosa ATCC27853 by CLSI based serial dilution method
# [3] = system: Staphylococcus aureus; assay: Antibacterial activity against methicillin-resistant Staphylococcus aureus 21-5 by CLSI based serial dilution method
# [4] = system: Enterococcus; assay: Antibacterial activity against vancomycin-resistant Enterococcus ATCC51299 by CLSI based serial dilution method
# [5] = system: Staphylococcus aureus; assay: Antibacterial activity against Staphylococcus aureus ATCC29213 by CLSI based serial dilution method
# [6] = system: Escherichia coli; assay: Antibacterial activity against Escherichia coli ATCC25922 by CLSI based serial dilution method
SMILES,MIC [1],MIC [2],MIC [3],MIC [4],MIC [5],MIC [6]
Cc1ccc(C(C)C)cc1OCCCC[N+](C)(C)CC(=O)N(C(C)C)C(C)C.[Br-],16 µg/mL,> 128 µg/mL,16 µg/mL,32 µg/mL,8 µg/mL,128 µg/mL
CCCN(CCC)C(=O)C[N+](C)(C)CCCCOc1cc(C(C)C)ccc1C.[Br-],32 µg/mL,> 128 µg/mL,32 µg/mL,64 µg/mL,16 µg/mL,128 µg/mL
CCCCNC(=O)C[N+](C)(C)CCCCCOc1cc(C(C)C)ccc1C.[Br-],16 µg/mL,> 128 µg/mL,16 µg/mL,128 µg/mL,16 µg/mL,> 64 µg/mL
Cc1ccc(C(C)C)c(OCCCCC[N+](C)(C)CC(=O)N(CC(C)C)CC(C)C)c1.[Br-],4 µg/mL,128 µg/mL,2 µg/mL,8 µg/mL,2 µg/mL,32 µg/mL
Cc1ccc(C(C)C)c(OCCCC[N+](C)(C)CC(=O)N2CCSCC2)c1.[Br-],64 µg/mL,> 128 µg/mL,64 µg/mL,> 128 µg/mL,64 µg/mL,> 128 µg/mL
CCCCN(CCCC)C(=O)C[N+](C)(C)CCCCOc1cc(C(C)C)ccc1C.[Br-],4 µg/mL,128 µg/mL,4 µg/mL,16 µg/mL,2 µg/mL,32 µg/mL
Cc1ccc(C(C)C)cc1OCCCCC[N+](C)(C)CC(=O)N(C(C)C)C(C)C.[Br-],8 µg/mL,> 128 µg/mL,8 µg/mL,8 µg/mL,4 µg/mL,64 µg/mL
CCCCN(CCCC)C(=O)C[N+](C)(C)CCCCOc1cc(C)ccc1C(C)C.[Br-],8 µg/mL,> 128 µg/mL,2 µg/mL,8 µg/mL,2 µg/mL,128 µg/mL
CCCCCCNC(=O)C[N+](C)(C)CCCOc1cc(C)ccc1C(C)C.[Br-],4 µg/mL,32 µg/mL,4 µg/mL,8 µg/mL,4 µg/mL,16 µg/mL
CCCN(CCC)C(=O)C[N+](C)(C)CCCCOc1cc(C)ccc1C(C)C.[Br-],32 µg/mL,> 128 µg/mL,16 µg/mL,64 µg/mL,8 µg/mL,128 µg/mL
Cc1ccc(C(C)C)cc1OCCC[N+](C)(C)CC(=O)N(C(C)C)C(C)C.[Br-],32 µg/mL,> 128 µg/mL,64 µg/mL,32 µg/mL,16 µg/mL,128 µg/mL
Cc1ccc(C(C)C)c(OCCCC[N+](C)(C)CC(=O)N(C(C)C)C(C)C)c1.[Br-],16 µg/mL,> 128 µg/mL,16 µg/mL,32 µg/mL,8 µg/mL,128 µg/mL
CCCCN(CCCC)C(=O)C[N+](C)(C)CCCOc1cc(C)ccc1C(C)C.[Br-],16 µg/mL,> 128 µg/mL,8 µg/mL,32 µg/mL,8 µg/mL,128 µg/mL
Cc1ccc(C(C)C)cc1O [CARVACROL],128 µg/mL,> 128 µg/mL,> 128 µg/mL,> 128 µg/mL,> 128 µg/mL,128 µg/mL
CCCCCNC(=O)C[N+](C)(C)CCCCOc1cc(C)ccc1C(C)C.[Br-],16 µg/mL,> 128 µg/mL,8 µg/mL,32 µg/mL,8 µg/mL,32 µg/mL
CCCCCCCNC(=O)C[N+](C)(C)CCCOc1cc(C)ccc1C(C)C.[Br-],2 µg/mL,16 µg/mL,8 µg/mL,4 µg/mL,1 µg/mL,4 µg/mL
CC1(C)S[C@@H]2[C@H](NC(=O)[C@H](N)c3ccccc3)C(=O)N2[C@H]1C(=O)O [AMPICILLIN],0.5 µg/mL,> 128 µg/mL,64 µg/mL,16 µg/mL,0.5 µg/mL,4 µg/mL
CCCCNC(=O)C[N+](C)(C)CCCCCOc1cc(C)ccc1C(C)C.[Br-],16 µg/mL,> 128 µg/mL,16 µg/mL,64 µg/mL,8 µg/mL,64 µg/mL
Cc1ccc(C(C)C)cc1OCCC[N+](C)(C)CC(=O)N1CCSCC1.[Br-],64 µg/mL,> 128 µg/mL,128 µg/mL,> 128 µg/mL,64 µg/mL,128 µg/mL
CCCCCCCNC(=O)C[N+](C)(C)CCCCCOc1cc(C)ccc1C(C)C.[Br-],4 µg/mL,32 µg/mL,16 µg/mL,8 µg/mL,4 µg/mL,16 µg/mL
Cc1ccc(C(C)C)c(OCCCCC[N+](C)(C)CC(=O)N2CCSCC2)c1.[Br-],32 µg/mL,> 128 µg/mL,32 µg/mL,128 µg/mL,32 µg/mL,128 µg/mL
CCCN(CCC)C(=O)C[N+](C)(C)CCCCCOc1cc(C(C)C)ccc1C.[Br-],8 µg/mL,> 128 µg/mL,16 µg/mL,16 µg/mL,8 µg/mL,64 µg/mL

SMILES,MIC [1],MIC [2],MIC [3],MIC [4],MIC [5],MIC [6]
CCCNC(=O)C[N+](C)(C)CCCCOc1cc(C)ccc1C(C)C.[Br-],128 µg/mL,> 128 µg/mL,128 µg/mL,> 128 µg/mL,64 µg/mL,> 128 µg/mL
CCCCCNC(=O)C[N+](C)(C)CCCCOc1cc(C(C)C)ccc1C.[Br-],8 µg/mL,128 µg/mL,8 µg/mL,16 µg/mL,4 µg/mL,16 µg/mL
CCCCNC(=O)C[N+](C)(C)CCCCOc1cc(C)ccc1C(C)C.[Br-],64 µg/mL,> 128 µg/mL,16 µg/mL,128 µg/mL,16 µg/mL,128 µg/mL
CCCCCCN(CCCCCC)C(=O)C[N+](C)(C)CCCCCOc1cc(C)ccc1C(C)C.[Br-],> 128 µg/mL,> 128 µg/mL,> 128 µg/mL,> 128 µg/mL,> 128 µg/mL,> 128 µg/mL
Cc1ccc(C(C)C)c(OCCC[N+](C)(C)CC(=O)N(C(C)C)C(C)C)c1.[Br-],16 µg/mL,> 128 µg/mL,16 µg/mL,32 µg/mL,16 µg/mL,128 µg/mL
CCCCCCNC(=O)C[N+](C)(C)CCCCCOc1cc(C(C)C)ccc1C.[Br-],2 µg/mL,16 µg/mL,2 µg/mL,8 µg/mL,2 µg/mL,8 µg/mL
Cc1ccc(C(C)C)cc1OCCCC[N+](C)(C)CC(=O)N1CCSCC1.[Br-],64 µg/mL,> 128 µg/mL,64 µg/mL,128 µg/mL,32 µg/mL,128 µg/mL
Cc1ccc(C(C)C)c(OCCCC[N+](C)(C)CC(=O)N(CC(C)C)CC(C)C)c1.[Br-],8 µg/mL,> 128 µg/mL,4 µg/mL,16 µg/mL,4 µg/mL,64 µg/mL
Cc1ccc(C(C)C)c(OCCC[N+](C)(C)CC(=O)N(CC(C)C)CC(C)C)c1.[Br-],8 µg/mL,> 128 µg/mL,8 µg/mL,16 µg/mL,4 µg/mL,64 µg/mL
CCCCCNC(=O)C[N+](C)(C)CCCCCOc1cc(C(C)C)ccc1C.[Br-],8 µg/mL,64 µg/mL,8 µg/mL,16 µg/mL,4 µg/mL,16 µg/mL
CCCNC(=O)C[N+](C)(C)CCCOc1cc(C(C)C)ccc1C.[Br-],128 µg/mL,> 128 µg/mL,> 128 µg/mL,> 128 µg/mL,128 µg/mL,> 128 µg/mL
CCCCCCNC(=O)C[N+](C)(C)CCCCOc1cc(C(C)C)ccc1C.[Br-],4 µg/mL,32 µg/mL,8 µg/mL,8 µg/mL,2 µg/mL,16 µg/mL
Cc1ccc(C(C)C)cc1OCCCCC[N+](C)(C)CC(=O)N(CC(C)C)CC(C)C.[Br-],4 µg/mL,64 µg/mL,4 µg/mL,64 µg/mL,2 µg/mL,32 µg/mL
CCCCCCN(CCCCCC)C(=O)C[N+](C)(C)CCCOc1cc(C(C)C)ccc1C.[Br-],0.25 µg/mL,16 µg/mL,8 µg/mL,1 µg/mL,0.25 µg/mL,4 µg/mL
CCCCN(CCCC)C(=O)C[N+](C)(C)CCCCCOc1cc(C(C)C)ccc1C.[Br-],2 µg/mL,32 µg/mL,2 µg/mL,32 µg/mL,1 µg/mL,16 µg/mL
CCCCNC(=O)C[N+](C)(C)CCCOc1cc(C)ccc1C(C)C.[Br-],64 µg/mL,> 128 µg/mL,32 µg/mL,128 µg/mL,32 µg/mL,128 µg/mL
Cc1ccc(C(C)C)c(OCCCC[N+](C)(C)CC(=O)N2CCOCC2)c1.[Br-],> 128 µg/mL,> 128 µg/mL,> 128 µg/mL,> 128 µg/mL,> 128 µg/mL,> 128 µg/mL
Cc1ccc(C(C)C)cc1OCCCC[N+](C)(C)CC(=O)N1CCOCC1.[Br-],> 128 µg/mL,> 128 µg/mL,> 128 µg/mL,> 128 µg/mL,> 128 µg/mL,> 128 µg/mL
CCCCCCNC(=O)C[N+](C)(C)CCCOc1cc(C(C)C)ccc1C.[Br-],4 µg/mL,32 µg/mL,8 µg/mL,8 µg/mL,4 µg/mL,16 µg/mL
CCCCCCNC(=O)C[N+](C)(C)CCCCCOc1cc(C)ccc1C(C)C.[Br-],2 µg/mL,32 µg/mL,2 µg/mL,4 µg/mL,2 µg/mL,8 µg/mL
CCCN(CCC)C(=O)C[N+](C)(C)CCCOc1cc(C)ccc1C(C)C.[Br-],32 µg/mL,> 128 µg/mL,16 µg/mL,128 µg/mL,16 µg/mL,128 µg/mL
CCCCCNC(=O)C[N+](C)(C)CCCOc1cc(C(C)C)ccc1C.[Br-],16 µg/mL,128 µg/mL,32 µg/mL,32 µg/mL,8 µg/mL,32 µg/mL
